Results on 57 compounds are retold here after patent publication US11198695B2, “Fused ring derivative having MGAT-2 inhibitory activity” (Shionogi & Co., Ltd., priority 2017, dated 2021).

Chain of recombinant human MGAT2 (Q3SYC2 whole entry): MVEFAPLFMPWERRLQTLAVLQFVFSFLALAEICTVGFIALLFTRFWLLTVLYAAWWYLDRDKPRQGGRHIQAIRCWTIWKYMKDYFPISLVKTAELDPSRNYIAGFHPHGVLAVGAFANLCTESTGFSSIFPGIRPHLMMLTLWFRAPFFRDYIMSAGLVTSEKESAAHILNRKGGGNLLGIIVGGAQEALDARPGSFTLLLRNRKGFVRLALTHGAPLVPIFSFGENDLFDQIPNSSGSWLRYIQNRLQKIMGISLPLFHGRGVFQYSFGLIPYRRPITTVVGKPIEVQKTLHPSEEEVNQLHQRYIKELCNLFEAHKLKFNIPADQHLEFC

The assay addresses recombinant human MGAT2 (Homo sapiens (Human), UniProt Q3SYC2). Put plainly: Measurement of human MGAT2 inhibitory activity. It counts as biochemical. Conditions: read-out: IC50 (concentration exhibiting 50% enzyme inhibition), Table 52. An outline of the steps: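 RapidFire ESI-MS read-out of the diolein/diolein-d5 peak ratio gave % inhibition, with no-enzyme and full-enzyme wells as 100% and 0%. Reactions ran 1 h at room temperature at pH 7.4 (phosphate, 2 mmol/L DTT), using Flag-tagged human MGAT2 membranes from Sf9 cells and a substrate solution of 30 μmol/L 2-oleoylglycerol and 10 μmol/L oleoyl-CoA.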
Regarding `O=C(Nc1c2c(nn1CCC1CC1)C[C@]1(CCc3cc(OCC(F)(F)F)ccc31)NC2=O)c1cncnc1` [Compound I-216], the IC50 was 35 nM.
To `O=C(Nc1c2c(nn1CCC1CC1)C[C@]1(CCc3cc(OCC(F)(F)F)ccc31)NC2=O)c1cnccn1` [Compound I-217] belongs 89.5 nM; to `O=C(Nc1c2c(nn1CCC1CC1)C[C@]1(CCc3cc(OCC(F)(F)F)ccc31)NC2=O)c1ccoc1` [Compound I-218], 48 nM; to `O=C(Nc1c2c(nn1CCC1CC1)C[C@]1(CCc3cc(OCC(F)(F)F)ccc31)NC2=O)c1csnn1` [Compound I-219], 110 nM.
As for `O=C(Nc1c2c(nn1CCC1CC1)C[C@]1(CCc3cc(OCC(F)(F)F)ccc31)NC2=O)c1ccco1` [Compound I-220], the figure is 35 nM; as for `Cc1nnsc1C(=O)Nc1c2c(nn1CCC1CC1)C[C@]1(CCc3cc(OCC(F)(F)F)ccc31)NC2=O` [Compound I-221], 60 nM; as for `O=C(Nc1c2c(nn1CCC1CC1)C[C@]1(CCc3cc(OCC(F)(F)F)ccc31)NC2=O)c1cscn1` [Compound I-222], 88 nM.
For `Cn1nccc1C(=O)Nc1c2c(nn1CCC1CC1)C[C@]1(CCc3cc(OCC(F)(F)F)ccc31)NC2=O` [Compound I-223], the IC50 was determined as 140 nM.
Take `Cc1oncc1C(=O)Nc1c2c(nn1CCC1CC1)C[C@]1(CCc3cc(OCC(F)(F)F)ccc31)NC2=O` [Compound I-224]: the IC50 was 310 nM.
As for `O=C(Nc1c2c(nn1CCC1CC1)C[C@]1(CCc3cc(OCC(F)(F)F)ccc31)NC2=O)c1ncco1` [Compound I-225], the figure is 40 nM.
To `Cc1cnoc1C(=O)Nc1c2c(nn1CCC1CC1)C[C@]1(CCc3cc(OCC(F)(F)F)ccc31)NC2=O` [Compound I-226] belongs 90 nM; to `Cc1cc(C(=O)Nc2c3c(nn2CCC2CC2)C[C@]2(CCc4cc(OCC(F)(F)F)ccc42)NC3=O)ns1` [Compound I-227], 370 nM.
As for `O=C(Nc1c2c(nn1CCC1CC1)C[C@]1(CCc3cc(OCC(F)(F)F)ccc31)NC2=O)c1cncs1` [Compound I-228], the figure is 28 nM; as for `Cc1cc(C(=O)Nc2c3c(nn2CCC2CC2)C[C@]2(CCc4cc(OCC(F)(F)F)ccc42)NC3=O)n(C)n1` [Compound I-229], 620 nM; as for `Cc1ncc(C(=O)Nc2c3c(nn2CCC2CC2)C[C@]2(CCc4cc(OCC(F)(F)F)ccc42)NC3=O)s1` [Compound I-230], 210 nM.
Regarding `O=C(Nc1c2c(nn1CCC1CC1)C[C@]1(CCc3cc(OCC(F)(F)F)ccc31)NC2=O)c1cocn1` [Compound I-231], the IC50 turned out to be 47.5 nM.
Consider `Cn1ccc(C(=O)Nc2c3c(nn2CCC2CC2)C[C@]2(CCc4cc(OCC(F)(F)F)ccc42)NC3=O)n1` [Compound I-232], for which the IC50 was 270 nM.
As for `C=C(C)c1ccc(-n2nc3c(c2NC(=O)CS(C)(=O)=O)C(=O)N[C@@]2(CCc4cc(OCC(F)(F)F)ccc42)C3)nc1` [Compound I-233], the figure is 11 nM.
Take `CS(=O)(=O)CC(=O)Nc1c2c(nn1CCC1CC1)C[C@]1(CCc3cc(N4CC(C(F)(F)F)C4)ccc31)NC2=O` [Compound I-234]: the IC50 was 9.8 nM.
Turning to `CS(=O)(=O)CC(=O)Nc1c2c(nn1CCC1CC1)C[C@]1(CCc3cc(N4CCC4)ccc31)NC2=O` [Compound I-235], the IC50 was determined as 85 nM.
To `CC(C)(O)c1ccc(-n2nc3c(c2NC(=O)CS(C)(=O)=O)C(=O)N[C@@]2(CCc4cc(OCC(F)(F)F)ccc42)C3)nc1` [Compound I-237] belongs 16 nM; to `CC(C)c1ccc(-n2nc3c(c2NC(=O)CS(C)(=O)=O)C(=O)N[C@@]2(CCc4cc(OCC(F)(F)F)ccc42)C3)nc1` [Compound I-238], 10 nM; to `CCCc1cccc(-n2nc3c(c2NC(=O)CS(C)(=O)=O)C(=O)N[C@@]2(CCc4cc(OCC(F)(F)F)ccc42)C3)c1` [Compound I-239], 380 nM.
To `CC(C)(O)c1cccc(-n2nc3c(c2NC(=O)CS(C)(=O)=O)C(=O)N[C@@]2(CCc4cc(OCC(F)(F)F)ccc42)C3)c1` [Compound I-240] belongs 1000 nM.
To `O=C(NCc1c2c(nn1CCC1CC1)C[C@]1(CCc3cc(OCC(F)(F)F)ccc31)NC2=O)c1ccc(O)cc1` [Compound I-241] belongs 380 nM; to `CS(=O)(=O)CC(=O)Nc1c2c(nn1-c1ccc(C#N)cn1)C[C@@]1(CCc3cc(C4CC4)ccc31)NC2=O` [Compound I-242], 3.6 nM.
On to `CS(=O)(=O)CC(=O)Nc1c2c(nn1-c1ccc(C#N)cn1)C[C@]1(CCOc3cc(OCC(F)(F)F)ccc31)NC2=O` [Compound I-243], for which the IC50 turned out to be 3.5 nM.
As for `COc1cccc(-n2nc3c(c2NC(=O)CS(C)(=O)=O)C(=O)N[C@@]2(CCc4cc(OCC(F)(F)F)ccc42)C3)c1` [Compound I-244], the IC50 was determined as 110 nM.
As for `CS(=O)(=O)CC(=O)Nc1c2c(nn1-c1cccc(C#N)c1)C[C@]1(CCc3cc(OCC(F)(F)F)ccc31)NC2=O` [Compound I-245], the IC50 was 530 nM.
As for `CS(=O)(=O)CC(=O)Nc1c2c(nn1-c1ccc3c(c1)CCC3)C[C@]1(CCc3cc(OCC(F)(F)F)ccc31)NC2=O` [Compound I-246], the figure is 24 nM; as for `CS(=O)(=O)CC(=O)Nc1c2c(nn1-c1ccc3c(c1)OC(F)(F)O3)C[C@]1(CCc3cc(OCC(F)(F)F)ccc31)NC2=O` [Compound I-247], 84 nM; as for `CS(=O)(=O)CC(=O)Nc1c2c(nn1-c1cccc(C3CC3)c1)C[C@]1(CCc3cc(OCC(F)(F)F)ccc31)NC2=O` [Compound I-248], 240 nM.
To `CS(=O)(=O)CC(=O)Nc1c2c(nn1CCC1CC1)C[C@@]1(CCc3cc(OCC(F)(F)F)cc(F)c31)NC2=O` [Compound I-249] belongs 3.5 nM; to `CCOCCn1nc2c(c1NC(=O)CS(C)(=O)=O)C(=O)N[C@@]1(CCc3cc(OCC(F)(F)F)ccc31)C2` [Compound I-250], 150 nM.
To `COCCCCn1nc2c(c1NC(=O)CS(C)(=O)=O)C(=O)N[C@@]1(CCc3cc(OCC(F)(F)F)ccc31)C2` [Compound I-251] belongs 490 nM; to `COCCCn1nc2c(c1NC(=O)CS(C)(=O)=O)C(=O)N[C@@]1(CCc3cc(OCC(F)(F)F)ccc31)C2` [Compound I-252], 13 nM.
As to `CS(=O)(=O)CC(=O)Nc1c2c(nn1CCCC#N)C[C@]1(CCc3cc(OCC(F)(F)F)ccc31)NC2=O` [Compound I-254], the IC50 was found to be 95 nM.
With `CS(=O)(=O)CC(=O)Nc1c2c(nn1CCCCC(F)(F)F)C[C@]1(CCc3cc(OCC(F)(F)F)ccc31)NC2=O` [Compound I-255], the IC50 was 17 nM.
In the case of `CS(=O)(=O)CC(=O)Nc1c2c(nn1CCC(F)(F)F)C[C@]1(CCc3cc(OCC(F)(F)F)ccc31)NC2=O` [Compound I-256], the IC50 came to 160 nM.
As for `CS(=O)(=O)CC(=O)Nc1c2c(nn1CC1CCCO1)C[C@]1(CCc3cc(OCC(F)(F)F)ccc31)NC2=O` (stereo partly drawn) [Compound I-257], the figure is 80 nM; as for `CS(=O)(=O)CC(=O)Nc1c2c(nn1CCC1CCOCC1)C[C@]1(CCc3cc(OCC(F)(F)F)ccc31)NC2=O` [Compound I-258], 120 nM; as for `CC1(C)CCC(Cn2nc3c(c2NC(=O)CS(C)(=O)=O)C(=O)N[C@@]2(CCc4cc(OCC(F)(F)F)ccc42)C3)O1` (stereo partly drawn) [Compound I-259], 59 nM.
To `CS(=O)(=O)CC(=O)Nc1c2c(nn1Cc1ccon1)C[C@]1(CCc3cc(OCC(F)(F)F)ccc31)NC2=O` [Compound I-260] belongs 490 nM; to `CS(=O)(=O)CC(=O)Nc1c2c(nn1CCc1ccc(F)cc1)C[C@]1(CCc3cc(OCC(F)(F)F)ccc31)NC2=O` [Compound I-261], 16 nM.
To `COc1ccc(-n2nc3c(c2NC(=O)CS(C)(=O)=O)C(=O)N[C@@]2(CCc4cc(OCC(F)(F)F)ccc42)C3)nc1` [Compound I-262] belongs 34 nM.
Regarding `Cc1ccc(-n2nc3c(c2NC(=O)CS(C)(=O)=O)C(=O)N[C@@]2(CCc4cc(OCC(F)(F)F)ccc42)C3)nn1` [Compound I-263], the IC50 worked out at 4.7 nM.
To `Cc1cnc(-n2nc3c(c2NC(=O)CS(C)(=O)=O)C(=O)N[C@@]2(CCc4cc(OCC(F)(F)F)ccc42)C3)cn1` [Compound I-264] belongs 86 nM; to `CS(=O)(=O)CC(=O)Nc1c2c(nn1-c1cccnn1)C[C@]1(CCc3cc(OCC(F)(F)F)ccc31)NC2=O` [Compound I-265], 36 nM; to `Cc1ccc(-n2nc3c(c2NC(=O)CS(C)(=O)=O)C(=O)N[C@]2(CCc4cc(OCC(F)(F)F)ccc42)C3)cc1` [Compound I-266], 4.6 nM.
Take `Cc1cccc(-n2nc3c(c2NC(=O)CS(C)(=O)=O)C(=O)N[C@]2(CCc4cc(OCC(F)(F)F)ccc42)C3)c1` [Compound I-267]: the IC50 came out at 9.8 nM.
As for `CS(=O)(=O)CC(=O)Nc1c2c(nn1-c1ccc(F)cc1)C[C@@]1(CCc3cc(OCC(F)(F)F)ccc31)NC2=O` [Compound I-269], the figure is 5.5 nM; as for `Cc1ccc(-n2nc3c(c2NC(=O)CS(C)(=O)=O)C(=O)N[C@]2(CCc4cc(OCC(F)(F)F)ccc42)C3)nc1` [Compound I-270], 2.8 nM; as for `CS(=O)(=O)CC(=O)Nc1c2c(nn1-c1cnccn1)C[C@@]1(CCc3cc(OCC(F)(F)F)ccc31)NC2=O` [Compound I-271], 780 nM.
To `CS(=O)(=O)CC(=O)Nc1c2c(nn1-c1ccncn1)C[C@@]1(CCc3cc(OCC(F)(F)F)ccc31)NC2=O` [Compound I-272] belongs 20 nM; to `CS(=O)(=O)CC(=O)Nc1c2c(nn1C1CCCCC1)C[C@@]1(CCc3cc(OCC(F)(F)F)ccc31)NC2=O` [Compound I-273], 20 nM.
As for `Cc1ccc(-n2nc3c(c2NC(=O)CS(C)(=O)=O)C(=O)N[C@@]2(CCOc4cc(OCC(F)(F)F)ccc42)C3)cc1` [Compound I-274], the figure is 3.9 nM; as for `O=C1N[C@@]2(CCc3cc(OCC(F)(F)F)cc(F)c32)Cc2nn(CCC3CC3)c(-c3nnn[nH]3)c21` [Compound I-278], 29 nM.
